One experiment concerns LPA 18:2 in human plasma. In words: Human whole blood (plasma) LPA assay. The experiment is classed as biochemical. To be noted: 2 h at 37 C, LPA 18:2 by LC-MS/MS. As to the method:
Blood is collected from healthy volunteers who gave informed consent into sodium heparin tubes by venipuncture, then gently inverted several times to prevent clotting. Tubes are centrifuged at 3000 rpm for 15 min at 4° C. then plasma is stored at −80° C. Compounds are diluted in DMSO in concentration dependent manner then 0.5 μL are dispensed into 96-well plate placed in ice. Plasma is defrosted on ice then 49.5 μL of plasma are added into the well containing 0.5 μL of compound (1% DMSO final). Plates are covered with a lid in polypropylene and incubated at +37° C., 5% CO2, for 2 h under gentle shaking (except controls which are stored at −20° C.).
At the end of the incubation, controls are defrosted in ice and transferred in the incubated plates for LC-MS/MS analysis with a non GLP-validated method. For the analysis, plasma proteins from a 10 μL incubated plates are precipitated with an excess of methanol containing the internal standard, LPA 17:0. After centrifugation, the corresponding supernatant is injected on a C18 column. Analytes are eluted out of the column under isocratic conditions. An API5500 QTRAP mass spectrometer (ABSciex™) is used for the detection of LPA 18:2. No calibration curve is prepared for LPA 18:2, however relative quantities are evaluated based on the peak area.

The test system of another experiment is LPA 18:2 in rat plasma. Description: Rat whole blood (plasma) LPA assay. In kind it is biochemical. The following applies: 2 h at 37 C, LPA 18:2 by LC-MS/MS. In short, it runs like this: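 Heparinised rat plasma spiked with compound (1% DMSO final), incubated 2 h at 37 °C, 5% CO2 with shaking; controls kept at −20 °C. After methanol precipitation with LPA 17:0 internal standard, LPA 18:2 measured by LC-MS/MS (C18, isocratic), relative quantities from peak area without calibration.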

Experiment [1] deals with T1, hENPP2 (UniProtKB/SwissProt Q13822) (Homo sapiens (Human), UniProt Q13822). In words: hENPP2 biochemical assay, LPC as substrate. The following applies: LPC (palmitoyl 16:0) as substrate. In short, it runs like this:
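Human ENPP2 in 50 mM Tris-HCl pH 8.5, 500 mM NaCl, 5 mM KCl, 10 mM CaCl2, 0.1% fatty-acid-free BSA, reacted 30 min at 37 °C with LPC 16:0 (150 µM solution added 1:1). Released choline measured via choline oxidase/peroxidase/TOOS/4-aminoantipyrine quinoneimine dye at 555 nm; IC50 reported.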

Experiment [2] has as its target T1, hENPP2. Description: fluorescent hENPP2 biochemical assay, FS-3 as substrate. The following applies: read-out: FS3-IC50. Put shortly:
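hENPP2 in 50 mM Tris-HCl pH 8.0, 250 mM NaCl, 5 mM KCl, 1 mM MgCl2, 1 mM CaCl2, 0.1% fatty-acid-free BSA, preincubated with compound 30 min at room temperature. The 0.75 μM FS-3 solution was added and the mixture incubated 30 min at 30° C. Fluorescence (ex 485/em 520 nm) gives IC50.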

pIC50: −log10 of the molar value.

The values below come from patent US9670204B2, “Compounds and pharmaceutical compositions thereof for the treatment of inflammatory disorders” (Galapagos NV, priority 2013, dated 2017).

As usually defined, the pIC50 is −log10 of the IC50, conventionally taken in molar units.

Regarding `CCc1nc2c(F)cc(N3CCN(CC(=O)NC)CC3)cn2c1N(C)c1nc(-c2ccc(F)cc2)c(C#N)s1` [Compound 13, 2-(4-(3-((5-cyano-4-(4-fluorophenyl)thiazol-2-yl)(methyl)amino)-2-ethyl-8-fluoroimidazo[1,2-a]pyridin-6-yl)piperazin-1-yl)-N-methylacetamide], the pIC50 in the experiment with LPA 18:2 in human plasma was 6.30 to 7.00; in the experiment with LPA 18:2 in rat plasma, 7.00 to 11.00.

On to `CCc1nc2ccc(C3CCN(CC(=O)N4CC(O)C4)CC3)cn2c1N(C)c1nc(-c2ccc(F)cc2)cs1` [Compound 110, 2-(4-(2-ethyl-3-((4-(4-fluorophenyl)thiazol-2-yl)(methyl)amino)imidazo[1,2-a]pyridin-6-yl)piperidin-1-yl)-(3-hydroxyazetidin-1-yl)ethanone], for which the pIC50 against hENPP2 [1] was 6.30 to 7.00; on hENPP2 [2], 7.00 to 11.00; in the experiment on LPA 18:2 in human plasma, below 6.00; with LPA 18:2 in rat plasma it was below 6.00.

On to `CCc1nc2ccc(C3CCN(S(=O)(=O)CCCO)CC3)cn2c1N(C)c1nc(-c2ccc(F)cc2)c(F)s1` [Compound 95, 3-[4-(2-Ethyl-3-{[5-fluoro-4-(4-fluoro-phenyl)-thiazol-2-yl]-methyl-amino}-imidazo[1,2-a]pyridin-6-yl)-piperidine-1-sulfonyl]-propan-1-ol], for which the figures for the pIC50 at hENPP2 [1], on hENPP2 [2] and in the experiment with LPA 18:2 in rat plasma were below 6.00, 7.00 to 11.00 and 6.30 to 7.00, respectively.

With `CCc1nc2ccc(N3CCN(Cc4cnc[nH]4)CC3)cn2c1N(C)c1nc(-c2ccc(F)cc2)cs1` [Compound 192, N-(6-(4-((1H-imidazol-5-yl)methyl)piperazin-1-yl)-2-ethylimidazo[1,2-a]pyridin-3-yl)-4-(4-fluorophenyl)-N-methylthiazol-2-amine], the pIC50 is 6.00 to 6.30 at hENPP2 [1], 7.00 to 11.00 at hENPP2 [2] and below 6.00 in the experiment on LPA 18:2 in rat plasma.

As for `CCc1nc2ccc(N3CCN(CCO)CC3)cn2c1N(C)c1nc(-c2ccc(Cl)cc2)cs1` [Compound 212, 2-(4-(3-((4-(4-chlorophenyl)thiazol-2-yl)(methyl)amino)-2-ethylimidazo[1,2-a]pyridin-6-yl)piperazin-1-yl)ethanol], the pIC50 against hENPP2 [1] was below 6.00; on hENPP2 [2], 7.00 to 11.00; in the experiment with LPA 18:2 in rat plasma, below 6.00.

As for `CCc1nc2c(C)cc(N3CCN(CC(=O)N4CC[C@H](O)C4)CC3)cn2c1N(C)c1nc(-c2ccc(F)cc2)c(C#N)s1` [Compound 5, (S)-2-((2-ethyl-6-(4-(2-(3-hydroxypyrrolidin-1-yl)-2-oxoethyl)piperazin-1-yl)-8-methylimidazo[1,2-a]pyridin-3-yl)(methyl)amino)-4-(4-fluorophenyl)thiazole-5-carbonitrile], the negative-log IC50 (pIC50) on hENPP2 [1] is 6.30 to 7.00; on hENPP2 [2], 7.00 to 11.00; in the experiment on LPA 18:2 in rat plasma, 6.00 to 6.30.

Turning to `CCc1nc2ccc(C3CCN(CC(=O)N(C)C)CC3)cn2c1N(C)c1nc(-c2ccc(F)cc2)c(C#N)s1` [Compound 145, 2-(4-(3-((5-cyano-4-(4-fluorophenyl)thiazol-2-yl)(methyl)amino)-2-ethylimidazo[1,2-a]pyridin-6-yl)piperidin-1-yl)-N,N-dimethylacetamide], the pIC50 against hENPP2 [1], on hENPP2 [2] and with LPA 18:2 in rat plasma was 7.00 to 11.00 each time.

In the case of `CCc1nc2ccc(C3CCN(S(C)(=O)=O)CC3)cn2c1N(C)c1nc(-c2ccc(F)cc2)cs1` [Compound 80, N-(2-ethyl-6-(1-(methylsulfonyl)piperidin-4-yl)imidazo[1,2-a]pyridin-3-yl)-4-(4-fluorophenyl)-N-methylthiazol-2-amine], the pIC50 against hENPP2 [1] is 6.00 to 6.30; on hENPP2 [2] it was 7.00 to 11.00; with LPA 18:2 in human plasma, below 6.00; with LPA 18:2 in rat plasma, 6.00 to 6.30.

Turning to `CCc1nc2ccc(N3CCS(=O)(=O)CC3)cn2c1N(C)c1nc(-c2ccc(Cl)cc2)cs1` [Compound 213, 4-(2-ethyl-3-((4-(4-chlorophenyl)thiazol-2-yl)(methyl)amino)imidazo[1,2-a]pyridin-6-yl)-thiomorpholin-1,1-dioxide], the negative logarithm of the IC50 (pIC50) against hENPP2 [1] is below 6.00; at hENPP2 [2], 7.00 to 11.00; in the experiment on LPA 18:2 in rat plasma, below 6.00.

Turning to `CCc1nc2ccc(N3CCN(S(=O)(=O)CCCN(C)C)CC3)cn2c1N(C)c1nc(-c2ccc(F)cc2)cs1` [Compound 56, N-(6-(4-(3-(dimethylamino)propyl-sulfonyl)piperazin-1-yl)-2-ethylimidazo[1,2-a]pyridin-3-yl)-4-(4-fluorophenyl)-N-methylthiazol-2-amine], the pIC50 on hENPP2 [1] was 6.00 to 6.30; at hENPP2 [2], 7.00 to 11.00; in the experiment on LPA 18:2 in rat plasma, below 6.00.

Regarding `CCc1nc2ccc(N3CCN(CC(=O)N4CC(O)C4)CC3)cn2c1N(C)c1nc(-c2ccc(F)cc2C#N)c(C)s1` [Compound 162, 2-(2-((2-ethyl-6-(4-(2-(3-hydroxyazetidin-1-yl)-2-oxoethyl)piperazin-1-yl)imidazo[1,2-a]pyridin-3-yl)(methyl)amino)-5-methylthiazol-4-yl)-5-fluorobenzonitrile], the pIC50 on hENPP2 [1] is 6.30 to 7.00; at hENPP2 [2], 7.00 to 11.00; in the experiment on LPA 18:2 in rat plasma, 6.30 to 7.00.

`CCc1nc2ccc(N3CCN(CC(=O)N(C)C)CC3)cn2c1N(C)c1nc(-c2ccc(F)cc2)c(CO)s1` [Compound 155, 2-(4-(2-ethyl-3-((4-(4-fluorophenyl)-5-(hydroxymethyl)thiazol-2-yl)(methyl)amino)imidazo[1,2-a]pyridin-6-yl)piperazin-1-yl)-N,N-dimethylacetamide]: the negative logarithm of the IC50 (pIC50) is 6.00 to 6.30 against hENPP2 [1], 7.00 to 11.00 at hENPP2 [2] and 6.30 to 7.00 in the experiment on LPA 18:2 in rat plasma.

In the case of `CCc1nc2ccc(C3CCN(CC(=O)N(C)C)CC3)cn2c1N(C)c1nc(-c2ccc(F)cc2C#N)cs1` [Compound 171, 2-(4-(3-((4-(2-cyano-4-fluorophenyl)thiazol-2-yl)(methyl)amino)-2-ethylimidazo[1,2-a]pyridin-6-yl)piperidin-1-yl)-N,N-dimethylacetamide], the negative logarithm of the IC50 (pIC50) was 7.00 to 11.00 against hENPP2 [1], 7.00 to 11.00 on hENPP2 [2] and 6.30 to 7.00 in the experiment with LPA 18:2 in rat plasma.

For the compound `CCc1nc2ccc(N3CCN(S(=O)(=O)CCCO)CC3)cn2c1N(C)c1nc(-c2ccc(F)cc2)cs1` [Compound 58, 3-(4-(2-ethyl-3-((4-(4-fluorophenyl)thiazol-2-yl)(methyl)amino)imidazo[1,2-a]pyridin-6-yl)piperazin-1-ylsulfonyl)propan-1-ol], the pIC50 is below 6.00 against hENPP2 [1], 7.00 to 11.00 on hENPP2 [2] and below 6.00 in the experiment with LPA 18:2 in rat plasma.
